Data published in patent US10918743B2, “Contrast medium formulation and related preparation method” (GUERBET, priority 2013, dated 2021).

Assay: Thermodynamic equilibrium constant for the complexation of Gd3+
Format: physicochemical
Conditions: complexation of Gd^3+ by the ligand
Description: In the particular case where M represents a gadolinium ion, for the following chemical equilibria: [drawing 3] and DOTA+Gd ? [DOTA-Gd] (equation 2) the thermodynamic equilibrium constant of equation 1 (i.e. for the complexation of Gd^3+ by the ligand of formula I') is 10^14.9 (i.e. log ([…])=14.9), while the thermodynamic equilibrium constant of equation 2 (i.e. for the complexation of Gd^3+ by DOTA) is 10^25.6 (i.e. log ([…])=25.6). Thus, the formulations according to the invention go against the teachings of document U.S. Pat. No. 5,876,695 in particular, since the complex of DOTA with the gadolinium ion is more thermodynamically stable than the active complex.

log (Ktherm), thermodynamic equilibrium constant | Compound
25.6 | O=C(O)CN1CCN(CC(=O)O)CCN(CC(=O)O)CCN(CC(=O)O)CC1 [DOTA, 1,4,7,10-tetraazacyclododecane-1,4,7,10-tetraacetic acid]
14.9 | O=C(CCC(C(=O)O)N1CCN(C(CCC(=O)NCC(O)CO)C(=O)O)Cc2cccc(n2)CN(C(CCC(=O)NCC(O)CO)C(=O)O)CC1)NCC(O)CO (centres unmarked) [ligand of formula I′]
